Measurements: patent publication US6410706B1, “Nucleic acid encoding chitin-binding receptor kinase” (Korea Research Institute of Bioscience and Biotechnology, priority 1999, dated 2002)

Target: recombinant chitinase domain of receptor kinase CHRK1 (amino acid residues 1 to 359 of SEQ ID NO: 1) (Nicotiana tabacum, UniProt Q9SWX8)
Assay: Fluorescence polarization chitin-binding assay with Scatchard plot analysis
Conditions: excitation 318 nm, emission 373 nm; for binding to the chitinase domain, seen as change in polarization value: fluorescence polarization, thioredoxin control did not increase
Method: The chitinase activity and the chitin-binding activity of receptor kinase CHRK1 in this invention are analysed using its recombinant chitinase domain. Consequently, the recombinant chitinase domain has a chitin-binding activity and lacks a chitinase activity.
In order to examine the chitinase activity of receptor kinase […], the recombinant chitinase domain corresponding to amino acid residues 1 to 359 of SEQ. ID NO: 1 was purified from E. coli, and its chitinase activity was estimated by fluorescence polarization assay.
As a result of Scratchard plot analysis, dissociation constant (kd) value of MU-chitotriose was estimated to be 800 nM. In case of using MU-chitotriose or MU-chitotetrose probe without fluorophor as a competitor, binding activity between the chitinase domain and MU-chitotriose or MU-chitotetrose conjugated with fluorophor was inhibited by the competitor. Consequently, the initial polarization value was decreased.

recombinant chitinase domain of receptor kinase CHRK1 (amino acid residues 1 to 359 of SEQ ID NO: 1), sequence (Q9SWX8 entry or part of it): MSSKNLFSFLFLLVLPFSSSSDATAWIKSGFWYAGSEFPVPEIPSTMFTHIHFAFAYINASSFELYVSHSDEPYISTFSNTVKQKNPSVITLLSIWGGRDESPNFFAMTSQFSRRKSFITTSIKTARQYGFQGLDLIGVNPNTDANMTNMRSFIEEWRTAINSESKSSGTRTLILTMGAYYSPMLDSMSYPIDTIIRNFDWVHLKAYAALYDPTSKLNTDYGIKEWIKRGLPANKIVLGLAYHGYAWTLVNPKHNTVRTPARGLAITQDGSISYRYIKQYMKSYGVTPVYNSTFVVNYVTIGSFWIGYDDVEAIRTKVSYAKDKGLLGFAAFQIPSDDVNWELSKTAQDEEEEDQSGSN

Structure (SMILES) | Kd (Scratchard plot analysis of fluorescence polarization, chitinase domain purified from E. coli, read-out: dissociation constant (kd)) [µM] | binding to the chitinase domain, seen as change in polarization value
CC(=O)N[C@H]1[C@H](Oc2ccc3c(C)cc(=O)oc3c2)O[C@H](CO)[C@@H](O[C@@H]2O[C@H](CO)[C@@H](O[C@@H]3O[C@H](CO)[C@@H](O)[C@H](O)[C@H]3NC(C)=O)[C@H](O)[C@H]2NC(C)=O)[C@@H]1O [MU-chitotriose] | 0.8 | increased polarization value
CC(=O)NC1C(OC2C(CO)OC(OC3C(CO)OC(OC4C(CO)OC(Oc5ccc6c(C)cc(=O)oc6c5)C(NC(C)=O)C4O)C(NC(C)=O)C3O)C(NC(C)=O)C2O)OC(CO)C(O)C1O (stereo not drawn) [Mu-chitotetrose] | – | increased polarization value
